Results from US20060286046A1, “Skin care compositions” (priority 2005, published 2006).

Assays:
Assay type in all cases: cell-based, human
JEG-3 cells [1] = assay: Viability experiments (Alamar Blue and CFDA-AM) after simulated solar radiation (SSR) exposure; conditions: SSR 16 hours
Description: (§1) JEG-3 cells, a human placental choriocarcinoma cell line of epithelial origin, were grown and maintained at 37° C., 5% CO2 in 75 mm^2 culture flasks until a confluent monolayer was formed. Cells were then removed, washed, re-suspended, and counted on a hemocytometer, allowing for the concentration to be adjusted to 30,000 cells/mL. Aliquots of 0.2 mL of the cell solution were added into each well of a 96 well micro-plate. The cells were incubated at 37° C., 5% CO2 for 48 hours prior to treatment to allow for a confluent monolayer to form. The media was aspirated off and new media with test compounds were added at various concentrations.
(§2) All treatments were made in MEM without FBS. The anti-oxidants were added directly to the medium. The cells were then incubated for 16 hours at 37° C./5% CO2 under simulated solar radiation (SSR) conditions, with a UVB:UVA:visible light ratio of 0.3:5.52:96 mmol m−2 s−1 (total fluence rate: 102 mmol m−2 s−1, which is about 5% of full sunlight).
Two viability experiments were done at the end of the incubation periods (Dark or SSR exposure). Alamar Blue™ is a metabolic (primarily mitochondrial) activity indicator that requires the reducing power of the cell to transform the dye from non-fluorescent to fluorescent. Carboxy-fluorescein diacetate (CFDA-AM) is also a fluorescent dye that requires cellular esterases inside a cell to become fluorescent. The presence of an intact membrane allows the CFDA-AM to concentrate and give a higher reading than may occur outside the cell. Both dyes were combined in phosphate buffered saline with glucose (PBSG) buffer and added to the microplate wells after the media (MEM plus treatment) was removed. […] The plates were incubated for 30 minutes at 37° C./5% CO2 and were then read on a fluorimeter (PerSeptive Biosystems Cytofluor 4000) with excitation and emission, respectively, set at 530 nm and 590 nm for Alamar Blue™ and 485 nm and 530 nm for CFDA-AM. Because of the different excitation and emission wavelengths as well as little cross-reactivity, both dyes can be used simultaneously. The results were calculated as a percentage of the control value.

JEG-3 cells [2] = assay: Metabolic activity (Alamar Blue) after dark exposure; conditions: incubated in the dark for 24 hours; FIG. 1
Description: Alamar Blue™ is a metabolic activity indicator that requires the reducing power of the cell to transform the dye from the non-fluorescent to the fluorescent. Decreased metabolic activity of a cell is generally associated with cell damage due to a variety of stressors.
as §1, with “The media was aspirated off and new media with test compounds were added at various concentrations.” left out
Two viability experiments were done at the end of the incubation periods (Dark or SSR exposure). […] The presence of an intact membrane allows the CFDA-AM to concentrate and give a higher reading than may occur outside the cell. […] The plates were incubated for 30 minutes at 37° C./5% CO2 and were then read on a fluorimeter (PerSeptive Biosystems Cytofluor 4000) with excitation and emission, respectively, set at 530 nm and 590 nm for Alamar Blue™ and 485 nm and 530 nm for CFDA-AM. […] The results were calculated as a percentage of the control value.

JEG-3 cells [3] = assay: Reactive oxygen species detection (H2DCFDA) after SSR exposure; conditions: SSR 16 hours; FIG. 4
Description: as §1, §2
To determine the levels of ROS generated in the cell system, another fluorescent probe, H2DCFDA, was used. After the 16-hour incubation period under SSR, the media was removed. The probe was added to PBSG in a ratio of 1 μl/ml for a final concentration of 4 nM according to manufacturer instructions. From this mixture, 200 μl/well was added and the plate read on the Cytofluor 4000 at 485 nm excitation and 530 nm emission for 4 hours with readings taken every hour. Results are stated in relative fluorescence units representing the fluorescent product, dichlorofluorescein (DCF). The results were calculated as a percentage of the dark control.

| SMILES | protection of cell viability (JEG-3 cells [1]; 10 mM) | metabolic activity compared to control cells (JEG-3 cells [2]) | ROS levels (DCF production) (JEG-3 cells [3]) | protective effect on ROS compared to other antioxidants (JEG-3 cells [3]) | protection of cell viability (JEG-3 cells [1]; all concentrations) |
| --- | --- | --- | --- | --- | --- |
| N[C@@H](CCC(=O)N[C@@H](CS)C(=O)NCC(=O)O)C(=O)O [GSH, glutathione] | complete protection | – | – | – | – |
| CC(=O)N[C@@H](CS)C(=O)O [NAC, N-acetylcysteine] | complete protection | did not differ significantly from control | decreased dye levels (DCF production) | superior to ascorbate but not as great as GSH | – |
| NCCC(=O)N[C@@H](Cc1cnc[nH]1)C(=O)O [carnosine, L-carnosine] | only partial protection | did not differ significantly from control | did not decrease ROS levels | – | only provided for partial protection of cell viability |
| O=C1O[C@H]([C@@H](O)CO)C(O)=C1O [ascorbate, ascorbic acid] | only partial protection | – | – | – | – |
